We go through five compounds from US20220175776A1, “COMBINATION OF CHIR99021 AND VALPROIC ACID FOR TREATING HEARING LOSS” (Frequency Therapeutics, Inc., priority 2019, published 2022).

A value given as a limit tells only on which side of the number the result lay.

One assay relates to KDM. The conditions noted are these: Table 9; cited from earlier work.
The next assay concerns the target gamma secretase. The conditions noted are these: SH-SY5Y cells; read-out: Lit cell conc, IC50; cited from earlier work.
The next assay deals with LSD1 (Homo sapiens, UniProt O60341). The conditions noted are these: Table 6; cited from earlier work.
The next assay has as its target T1, KDM1b (Homo sapiens, UniProt Q8NB78).
T1 sequence (Q8NB78 1-822): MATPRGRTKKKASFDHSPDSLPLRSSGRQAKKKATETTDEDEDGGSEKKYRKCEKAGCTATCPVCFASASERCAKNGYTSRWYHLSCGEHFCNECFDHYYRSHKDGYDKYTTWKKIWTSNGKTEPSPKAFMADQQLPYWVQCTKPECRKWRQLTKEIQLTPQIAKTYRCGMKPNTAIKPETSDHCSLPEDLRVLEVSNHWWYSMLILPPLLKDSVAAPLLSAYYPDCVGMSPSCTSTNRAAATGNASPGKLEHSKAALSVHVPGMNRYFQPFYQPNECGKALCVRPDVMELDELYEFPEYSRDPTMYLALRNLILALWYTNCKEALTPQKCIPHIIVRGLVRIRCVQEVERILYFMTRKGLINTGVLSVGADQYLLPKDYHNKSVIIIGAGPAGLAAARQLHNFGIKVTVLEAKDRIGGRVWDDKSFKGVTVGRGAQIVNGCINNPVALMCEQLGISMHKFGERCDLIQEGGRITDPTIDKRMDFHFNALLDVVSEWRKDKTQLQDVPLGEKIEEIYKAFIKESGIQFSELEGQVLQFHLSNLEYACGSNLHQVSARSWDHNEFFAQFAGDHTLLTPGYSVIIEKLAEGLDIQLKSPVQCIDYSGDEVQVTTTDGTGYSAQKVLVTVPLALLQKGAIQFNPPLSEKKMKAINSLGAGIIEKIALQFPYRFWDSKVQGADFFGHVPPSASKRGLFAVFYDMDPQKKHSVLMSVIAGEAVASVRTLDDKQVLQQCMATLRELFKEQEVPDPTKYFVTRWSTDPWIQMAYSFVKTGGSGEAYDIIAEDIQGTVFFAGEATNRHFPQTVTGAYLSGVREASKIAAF
The conditions noted are these: Table 6; read-out: Select KDM 1b; cited from earlier work.

A further assay addresses T2, MAO A (Homo sapiens, UniProt P21397).
T2 sequence (P21397 1-527): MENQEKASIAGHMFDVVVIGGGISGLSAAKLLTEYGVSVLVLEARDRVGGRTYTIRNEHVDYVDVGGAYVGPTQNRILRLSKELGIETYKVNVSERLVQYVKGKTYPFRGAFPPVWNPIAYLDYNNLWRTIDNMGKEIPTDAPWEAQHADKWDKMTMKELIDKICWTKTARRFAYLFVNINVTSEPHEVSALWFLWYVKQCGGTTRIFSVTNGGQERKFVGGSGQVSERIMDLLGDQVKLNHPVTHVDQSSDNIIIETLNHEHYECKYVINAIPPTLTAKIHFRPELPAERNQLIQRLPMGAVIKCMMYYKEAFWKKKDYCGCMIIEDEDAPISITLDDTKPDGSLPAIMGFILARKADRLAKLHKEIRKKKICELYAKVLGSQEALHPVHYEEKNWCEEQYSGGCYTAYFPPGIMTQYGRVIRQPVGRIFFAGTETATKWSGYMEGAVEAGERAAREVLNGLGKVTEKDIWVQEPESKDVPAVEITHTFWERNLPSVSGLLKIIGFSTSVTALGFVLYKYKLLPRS
The following applies: Table 6; marked A or first value of cell; read-out: Select MAOs A and B: MAO A; cited from earlier work.

The next assay concerns Lgr5+ cochlear cells. Description: Lgr5+ Assay (in vitro Lgr5+ cell proliferation assay). The assay is classed as cell-based. The following applies: Table 6.
A further assay concerns KDM2. The following applies: Table 9; read-out: Select KDM2; cited from earlier work.
A further assay concerns the target HER 2 (Homo sapiens, UniProt P04626). The conditions noted are these: Table 13; cited from earlier work.
The target in another assay is HER 4 (Homo sapiens, UniProt Q15303). The conditions noted are these: Table 13; cited from earlier work.
Chain of HER 4 (Q15303 26-1308): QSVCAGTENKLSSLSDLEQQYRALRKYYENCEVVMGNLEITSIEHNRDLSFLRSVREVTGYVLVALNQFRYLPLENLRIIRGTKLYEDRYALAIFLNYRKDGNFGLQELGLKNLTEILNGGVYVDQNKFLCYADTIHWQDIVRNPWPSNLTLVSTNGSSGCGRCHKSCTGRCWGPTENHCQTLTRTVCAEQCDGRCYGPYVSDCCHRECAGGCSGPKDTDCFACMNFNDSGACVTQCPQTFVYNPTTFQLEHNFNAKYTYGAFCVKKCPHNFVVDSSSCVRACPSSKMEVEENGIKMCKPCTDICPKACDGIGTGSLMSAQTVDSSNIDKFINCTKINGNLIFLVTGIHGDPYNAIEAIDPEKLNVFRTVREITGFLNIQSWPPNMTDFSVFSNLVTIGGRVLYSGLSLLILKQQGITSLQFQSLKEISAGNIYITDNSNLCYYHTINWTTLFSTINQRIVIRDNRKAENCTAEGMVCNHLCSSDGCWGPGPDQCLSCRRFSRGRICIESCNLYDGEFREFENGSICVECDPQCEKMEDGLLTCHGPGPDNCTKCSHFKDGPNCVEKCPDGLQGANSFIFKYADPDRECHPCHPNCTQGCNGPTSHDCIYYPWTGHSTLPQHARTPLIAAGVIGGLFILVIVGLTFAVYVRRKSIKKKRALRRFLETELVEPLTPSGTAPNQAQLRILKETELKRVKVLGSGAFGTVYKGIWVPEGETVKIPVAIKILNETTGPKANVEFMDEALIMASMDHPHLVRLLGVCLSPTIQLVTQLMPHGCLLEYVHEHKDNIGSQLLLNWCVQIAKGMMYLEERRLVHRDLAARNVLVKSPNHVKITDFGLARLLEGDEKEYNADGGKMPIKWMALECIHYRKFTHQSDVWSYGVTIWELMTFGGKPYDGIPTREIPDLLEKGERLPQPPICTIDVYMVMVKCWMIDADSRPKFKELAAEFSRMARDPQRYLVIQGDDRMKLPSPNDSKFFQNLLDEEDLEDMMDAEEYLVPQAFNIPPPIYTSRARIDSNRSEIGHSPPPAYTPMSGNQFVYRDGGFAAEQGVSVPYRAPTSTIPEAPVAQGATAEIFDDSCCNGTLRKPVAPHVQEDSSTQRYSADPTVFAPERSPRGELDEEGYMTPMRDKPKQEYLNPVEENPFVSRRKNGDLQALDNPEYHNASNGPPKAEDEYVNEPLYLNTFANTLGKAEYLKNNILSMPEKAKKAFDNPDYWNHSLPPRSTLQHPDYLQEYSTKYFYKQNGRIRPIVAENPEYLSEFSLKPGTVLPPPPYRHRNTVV

Chain of HER 2 (P04626 23-1255): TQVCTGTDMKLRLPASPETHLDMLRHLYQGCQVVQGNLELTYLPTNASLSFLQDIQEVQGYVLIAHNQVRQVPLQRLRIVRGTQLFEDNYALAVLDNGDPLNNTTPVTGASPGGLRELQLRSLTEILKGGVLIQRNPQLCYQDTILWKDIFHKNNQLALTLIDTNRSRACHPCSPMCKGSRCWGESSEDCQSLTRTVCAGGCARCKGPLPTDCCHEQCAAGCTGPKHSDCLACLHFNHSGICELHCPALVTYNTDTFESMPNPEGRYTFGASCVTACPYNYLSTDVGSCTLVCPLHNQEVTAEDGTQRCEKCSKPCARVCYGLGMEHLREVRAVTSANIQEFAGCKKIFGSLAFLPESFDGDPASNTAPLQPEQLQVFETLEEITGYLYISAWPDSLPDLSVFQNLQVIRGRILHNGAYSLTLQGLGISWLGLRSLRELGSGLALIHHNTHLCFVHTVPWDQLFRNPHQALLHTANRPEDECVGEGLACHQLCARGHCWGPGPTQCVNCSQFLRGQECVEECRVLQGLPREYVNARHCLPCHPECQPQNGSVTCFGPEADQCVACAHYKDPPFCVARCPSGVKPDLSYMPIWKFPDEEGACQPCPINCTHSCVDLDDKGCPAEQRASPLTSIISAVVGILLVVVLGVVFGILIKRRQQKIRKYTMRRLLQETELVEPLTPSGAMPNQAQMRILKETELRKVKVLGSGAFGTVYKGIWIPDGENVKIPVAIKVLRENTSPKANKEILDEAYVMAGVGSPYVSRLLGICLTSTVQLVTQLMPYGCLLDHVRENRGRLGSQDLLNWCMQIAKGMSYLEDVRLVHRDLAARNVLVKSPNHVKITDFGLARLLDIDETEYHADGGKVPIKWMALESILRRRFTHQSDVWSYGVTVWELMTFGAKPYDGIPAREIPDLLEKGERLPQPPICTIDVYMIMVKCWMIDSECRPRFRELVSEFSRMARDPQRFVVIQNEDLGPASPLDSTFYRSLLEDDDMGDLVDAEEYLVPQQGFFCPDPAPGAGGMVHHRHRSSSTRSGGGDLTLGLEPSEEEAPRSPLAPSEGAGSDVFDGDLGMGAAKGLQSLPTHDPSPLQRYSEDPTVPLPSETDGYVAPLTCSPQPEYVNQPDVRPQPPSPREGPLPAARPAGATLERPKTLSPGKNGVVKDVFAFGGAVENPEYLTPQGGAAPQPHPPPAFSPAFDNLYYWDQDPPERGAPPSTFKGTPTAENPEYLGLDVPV

Consider `O=C(O)CCNc1cc(N2CCc3ccccc3CC2)nc(-c2ccccn2)n1` [GSK-J1], for which the “Lit Cell” value in the assay with KDM was 50 µM.
Turning to `O=C(O)CCC1CCC(c2cc(F)ccc2F)(S(=O)(=O)c2ccc(Cl)cc2)CC1` (stereo not drawn) [MK-0572], the IC50 at gamma secretase was 5 nM.
In the case of `N[C@H]1CC[C@H](N[C@@H]2C[C@H]2c2ccccc2)CC1` [ORY-1001], the “Literat. Cell” value on LSD1 is 0.5 to 3 nM. The IC50 on KDM1b and at MAO A was above 100000 nM each time. For the same compound, the “Lgr5+ Assay” value in the assay on Lgr5+ cochlear cells amounted to 41 nM.
For `O=C(O)CCN(O)C(=O)CCCCCCCCC1CC1` [TC-E 5002], the IC50 in the assay with KDM2 is 6800 nM.
In the case of `C=CC(=O)N1CCC(Oc2cc3c(Nc4ccc(Cl)c(Cl)c4F)ncnc3cc2OC)CC1` [poziotinib], the IC50 was 5 nM on HER 2 and 23 nM on HER 4.
